# Laboratory results taken from ChEMBL document CHEMBL5038625, “Application of the dual-tail approach for the design and synthesis of novel Thiopyrimidine-Benzenesulfonamide hybrids as selective carbonic anhydrase inhibitors” (Eur J Med Chem, 2022).
# Tests used:
# [1] = test system: IGROV-1; assay: Antiproliferative activity against human IGROV-1 cells assessed as cell growth inhibition at 10 uM incubated for 24 hrs by sulforhodamine B assay; format: functional; settings: read-out: GI
# [2] = test system: SF-295; assay: Antiproliferative activity against human SF-295 cells assessed as cell growth inhibition at 10 uM incubated for 24 hrs by sulforhodamine B assay; format: functional; settings: read-out: GI
# [3] = test system: 786-0; assay: Antiproliferative activity against human 786-0 cells assessed as cell growth inhibition at 10 uM incubated for 24 hrs by sulforhodamine B assay; format: functional; settings: read-out: GI
# [4] = test system: U-251; assay: Antiproliferative activity against human U-251 cells assessed as cell growth inhibition at 10 uM incubated for 24 hrs by sulforhodamine B assay; format: functional; settings: read-out: GI
# [5] = test system: KM12; assay: Antiproliferative activity against human KM12 cells assessed as cell growth inhibition at 10 uM incubated for 24 hrs by sulforhodamine B assay; format: functional; settings: read-out: GI
# [6] = test system: HOP-92; assay: Antiproliferative activity against human HOP-92 cells assessed as cell growth inhibition at 10 uM incubated for 24 hrs by sulforhodamine B assay; format: functional; settings: read-out: GI
# [7] = test system: T47D; assay: Antiproliferative activity against human T47D cells assessed as reduction in cell viability incubated for 24 hrs by sulforhodamine B assay; format: functional, cell-based
# [8] = test system: SF-268; assay: Antiproliferative activity against human SF-268 cells assessed as cell growth inhibition at 10 uM incubated for 24 hrs by sulforhodamine B assay; format: functional; settings: read-out: GI
# [9] = test system: SNB-19; assay: Antiproliferative activity against human SNB-19 cells assessed as cell growth inhibition at 10 uM incubated for 24 hrs by sulforhodamine B assay; format: functional; settings: read-out: GI
# [10] = target: Carbonic anhydrase 9 (Homo sapiens, UniProt Q16790); assay: Inhibition of human CA9 preincubated for 15 mins by phenol red dye based stopped flow CO2 hydration assay
# [11] = test system: HOP-62; assay: Antiproliferative activity against human HOP-62 cells assessed as cell growth inhibition at 10 uM incubated for 24 hrs by sulforhodamine B assay; format: functional; settings: read-out: GI
# [12] = test system: CAKI-1; assay: Antiproliferative activity against human CAKI-1 cells assessed as cell growth inhibition at 10 uM incubated for 24 hrs by sulforhodamine B assay; format: functional; settings: read-out: GI
# [13] = test system: OVCAR-8; assay: Antiproliferative activity against human OVCAR-8 cells assessed as cell growth inhibition at 10 uM incubated for 24 hrs by sulforhodamine B assay; format: functional; settings: read-out: GI
# [14] = test system: MDA-MB-435; assay: Antiproliferative activity against human MDA-MB-435 cells assessed as cell growth inhibition at 10 uM incubated for 24 hrs by sulforhodamine B assay; format: functional; settings: read-out: GI
# [15] = test system: NCI-H460; assay: Antiproliferative activity against human NCI-H460 cells assessed as cell growth inhibition at 10 uM incubated for 24 hrs by sulforhodamine B assay; format: functional; settings: read-out: GI
# [16] = test system: K562; assay: Antiproliferative activity against human K562 cells assessed as cell growth inhibition at 10 uM incubated for 24 hrs by sulforhodamine B assay; format: functional; settings: read-out: GI
# [17] = test system: RPMI-8226; assay: Antiproliferative activity against human RPMI-8226 cells assessed as cell growth inhibition at 10 uM incubated for 24 hrs by sulforhodamine B assay; format: functional; settings: read-out: GI
# [18] = test system: HCT-116; assay: Antiproliferative activity against human HCT-116 cells assessed as cell growth inhibition at 10 uM incubated for 24 hrs by sulforhodamine B assay; format: functional; settings: read-out: GI
# [19] = test system: MCF7; assay: Antiproliferative activity against human MCF7 cells assessed as cell growth inhibition at 10 uM incubated for 24 hrs by sulforhodamine B assay; format: functional; settings: read-out: GI
# [20] = test system: A549; assay: Antiproliferative activity against human A549 cells assessed as cell growth inhibition at 10 uM incubated for 24 hrs by sulforhodamine B assay; format: functional; settings: read-out: GI
# [21] = test system: SN12C; assay: Antiproliferative activity against human SN12C cells assessed as cell growth inhibition at 10 uM incubated for 24 hrs by sulforhodamine B assay; format: functional; settings: read-out: GI
# [22] = test system: SW-620; assay: Antiproliferative activity against human SW-620 cells assessed as cell growth inhibition at 10 uM incubated for 24 hrs by sulforhodamine B assay; format: functional; settings: read-out: GI
# [23] = test system: OVCAR-4; assay: Antiproliferative activity against human OVCAR-4 cells assessed as cell growth inhibition at 10 uM incubated for 24 hrs by sulforhodamine B assay; format: functional; settings: read-out: GI
# [24] = test system: DU-145; assay: Antiproliferative activity against human DU-145 cells assessed as cell growth inhibition at 10 uM incubated for 24 hrs by sulforhodamine B assay; format: functional; settings: read-out: GI
# [25] = test system: HCT-15; assay: Antiproliferative activity against human HCT-15 cells assessed as cell growth inhibition at 10 uM incubated for 24 hrs by sulforhodamine B assay; format: functional; settings: read-out: GI
# [26] = test system: UACC-62; assay: Antiproliferative activity against human UACC-62 cells assessed as cell growth inhibition at 10 uM incubated for 24 hrs by sulforhodamine B assay; format: functional; settings: read-out: GI
# [27] = test system: T47D; assay: Antiproliferative activity against human T47D cells assessed as cell growth inhibition at 10 uM incubated for 24 hrs by sulforhodamine B assay; format: functional; settings: read-out: GI
# [28] = test system: SK-MEL-5; assay: Antiproliferative activity against human SK-MEL-5 cells assessed as cell growth inhibition at 10 uM incubated for 24 hrs by sulforhodamine B assay; format: functional; settings: read-out: GI
# [29] = test system: Malme-3M; assay: Antiproliferative activity against human Malme-3M cells assessed as cell growth inhibition at 10 uM incubated for 24 hrs by sulforhodamine B assay; format: functional; settings: read-out: GI
# [30] = test system: NCI-H23; assay: Antiproliferative activity against human NCI-H23 cells assessed as cell growth inhibition at 10 uM incubated for 24 hrs by sulforhodamine B assay; format: functional; settings: read-out: GI
# [31] = test system: BT-549; assay: Antiproliferative activity against human BT-549 cells assessed as cell growth inhibition at 10 uM incubated for 24 hrs by sulforhodamine B assay; format: functional; settings: read-out: GI
# [32] = test system: ACHN; assay: Antiproliferative activity against human ACHN cells assessed as cell growth inhibition at 10 uM incubated for 24 hrs by sulforhodamine B assay; format: functional; settings: read-out: GI
# [33] = test system: HT-29; assay: Antiproliferative activity against human HT-29 cells assessed as cell growth inhibition at 10 uM incubated for 24 hrs by sulforhodamine B assay; format: functional; settings: read-out: GI
# [34] = test system: OVCAR-3; assay: Antiproliferative activity against human OVCAR-3 cells assessed as cell growth inhibition at 10 uM incubated for 24 hrs by sulforhodamine B assay; format: functional; settings: read-out: GI
# [35] = test system: SNB-75; assay: Antiproliferative activity against human SNB-75 cells assessed as cell growth inhibition at 10 uM incubated for 24 hrs by sulforhodamine B assay; format: functional; settings: read-out: GI
# [36] = test system: NCI-H522; assay: Antiproliferative activity against human NCI-H522 cells assessed as cell growth inhibition at 10 uM incubated for 24 hrs by sulforhodamine B assay; format: functional; settings: read-out: GI
# [37] = test system: SK-MEL-28; assay: Antiproliferative activity against human SK-MEL-28 cells assessed as cell growth inhibition at 10 uM incubated for 24 hrs by sulforhodamine B assay; format: functional; settings: read-out: GI
# [38] = test system: UO-31; assay: Antiproliferative activity against human UO-31 cells assessed as cell growth inhibition at 10 uM incubated for 24 hrs by sulforhodamine B assay; format: functional; settings: read-out: GI
# [39] = test system: NCI/ADR-RES; assay: Antiproliferative activity against human NCI-ADR-RES cells assessed as cell growth inhibition at 10 uM incubated for 24 hrs by sulforhodamine B assay; format: functional; settings: read-out: GI
# [40] = test system: SR; assay: Antiproliferative activity against human SR cells assessed as cell growth inhibition at 10 uM incubated for 24 hrs by sulforhodamine B assay; format: functional; settings: read-out: GI
# [41] = test system: MCF7; assay: Antiproliferative activity against human MCF7 cells assessed as reduction in cell viability incubated for 24 hrs by sulforhodamine B assay; format: functional, cell-based; settings: MCF7, 24 h
# [42] = test system: LOX IMVI; assay: Antiproliferative activity against human LOX IMVI cells assessed as cell growth inhibition at 10 uM incubated for 24 hrs by sulforhodamine B assay; format: functional; settings: read-out: GI
# [43] = test system: SF-539; assay: Antiproliferative activity against human SF-539 cells assessed as cell growth inhibition at 10 uM incubated for 24 hrs by sulforhodamine B assay; format: functional; settings: read-out: GI
# [44] = test system: MOLT-4; assay: Antiproliferative activity against human MOLT-4 cells assessed as cell growth inhibition at 10 uM incubated for 24 hrs by sulforhodamine B assay; format: functional; settings: read-out: GI
# [45] = test system: NCI-H226; assay: Antiproliferative activity against human NCI-H226 cells assessed as cell growth inhibition at 10 uM incubated for 24 hrs by sulforhodamine B assay; format: functional; settings: read-out: GI
# [46] = test system: RXF 393; assay: Antiproliferative activity against human RXF 393 cells assessed as cell growth inhibition at 10 uM incubated for 24 hrs by sulforhodamine B assay; format: functional; settings: read-out: GI
# [47] = test system: MDA-MB-231; assay: Antiproliferative activity against human MDA-MB-231 cells assessed as cell growth inhibition at 10 uM incubated for 24 hrs by sulforhodamine B assay; format: functional; settings: read-out: GI
# [48] = test system: MDA-MB-231; assay: Antiproliferative activity against human MDA-MB-231 cells assessed as reduction in cell viability incubated for 24 hrs by sulforhodamine B assay; format: functional, cell-based; settings: MDA-MB-231, 24 h
# [49] = test system: PC-3; assay: Antiproliferative activity against human PC-3 cells assessed as cell growth inhibition at 10 uM incubated for 24 hrs by sulforhodamine B assay; format: functional; settings: read-out: GI
# [50] = test system: CCRF-CEM; assay: Antiproliferative activity against human CCRF-CEM cells assessed as cell growth inhibition at 10 uM incubated for 24 hrs by sulforhodamine B assay; format: functional; settings: read-out: GI
# [51] = test system: M14; assay: Antiproliferative activity against human M14 cells assessed as cell growth inhibition at 10 uM incubated for 24 hrs by sulforhodamine B assay; format: functional; settings: read-out: GI
# [52] = test system: TK-10; assay: Antiproliferative activity against human TK-10 cells assessed as cell growth inhibition at 10 uM incubated for 24 hrs by sulforhodamine B assay; format: functional; settings: read-out: GI
structure (smiles),measurement,setting,value
Cc1ccc(-c2nc(SCC(=O)c3ccccc3)nc(Nc3ccc(S(N)(=O)=O)cc3)c2C#N)cc1,inhibition of growth at 10 µM,[1],13.7%
same,inhibition of growth at 10 µM,[2],63.3%
same,inhibition of growth at 10 µM,[3],53.7%
same,inhibition of growth at 10 µM,[4],52.6%
same,inhibition of growth at 10 µM,[5],27.2%
same,inhibition of growth at 10 µM,[6],62.4%
same,IC50,[7],> 100 µM
same,inhibition of growth at 10 µM,[8],23.3%
same,inhibition of growth at 10 µM,[9],22.8%
same,Ki,[10],0.0074 µM
same,inhibition of growth at 10 µM,[11],73.8%
same,inhibition of growth at 10 µM,[12],48.5%
same,inhibition of growth at 10 µM,[13],65.4%
same,inhibition of growth at 10 µM,[14],53%
same,inhibition of growth at 10 µM,[15],34.8%
same,inhibition of growth at 10 µM,[16],29.9%
same,inhibition of growth at 10 µM,[17],34.6%
same,inhibition of growth at 10 µM,[18],64.1%
same,inhibition of growth at 10 µM,[19],34.9%
same,inhibition of growth at 10 µM,[20],12.6%
same,inhibition of growth at 10 µM,[21],37%
same,inhibition of growth at 10 µM,[22],16.2%
same,inhibition of growth at 10 µM,[23],75.7%
same,inhibition of growth at 10 µM,[24],39.3%
same,inhibition of growth at 10 µM,[25],27.9%
same,inhibition of growth at 10 µM,[26],19.7%
same,inhibition of growth at 10 µM,[27],16.1%
same,inhibition of growth at 10 µM,[28],24.5%
same,inhibition of growth at 10 µM,[29],66.4%
same,inhibition of growth at 10 µM,[30],65.5%
same,inhibition of growth at 10 µM,[31],26.2%
same,inhibition of growth at 10 µM,[32],10.3%
same,inhibition of growth at 10 µM,[33],7.65%
same,inhibition of growth at 10 µM,[34],96%
same,inhibition of growth at 10 µM,[35],20%
same,inhibition of growth at 10 µM,[36],12.9%
same,inhibition of growth at 10 µM,[37],18.9%
same,inhibition of growth at 10 µM,[38],25.1%
same,inhibition of growth at 10 µM,[39],18.3%
same,inhibition of growth at 10 µM,[40],43.1%
same,IC50,[41],> 100 µM
same,inhibition of growth at 10 µM,[42],84.5%
same,inhibition of growth at 10 µM,[43],81.7%
same,inhibition of growth at 10 µM,[44],13.4%
same,inhibition of growth at 10 µM,[45],28.6%
same,inhibition of growth at 10 µM,[46],48.2%
same,inhibition of growth at 10 µM,[47],67%
same,IC50,[48],> 100 µM
same,inhibition of growth at 10 µM,[49],7.4%
same,inhibition of growth at 10 µM,[50],18%
same,inhibition of growth at 10 µM,[51],63.3%
same,inhibition of growth at 10 µM,[52],32.5%
